# Several values for one entry are separate records, joined by “and”; a condition that tells them apart may be missing. Equal entries are not always repeated.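 Protocol summary: plate cells (96-well), add compound at 5 concentrations, incubate 48 h, interpolate endpoints linearly. GI50 = concentration required for 50% inhibition of growth. TGI marks complete inhibition of growth.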
# How the values were obtained:
# Assay in all cases: NCI tumour cell line growth inhibition, 48 h
# ACHN renal = test system: ACHN renal
# UO-31 renal = test system: UO-31 renal
# LOX IMVI melanoma = test system: LOX IMVI melanoma
# HT29 colon = test system: HT29 colon
# HCT-116 colon = test system: HCT-116 colon
# MALME-3M melanoma = test system: MALME-3M melanoma
# COLO 205 colon = test system: COLO 205 colon
# PC-3 prostate = test system: PC-3 prostate
# NCI-H226 lung = test system: NCI-H226 lung
# RPMI-8226 leukemia = test system: RPMI-8226 leukemia
compound,measurement,setting,value
CC(CC(C)[C@H]1CCC2[C@H]3C(CC[C@@]21C)[C@@]1(C)CCC(O)C[C@H]1C[C@@H]3O)C(=O)O (stereo partly specified),TGI,ACHN renal,> 100 µM
same,TGI,UO-31 renal,> 100 µM
same,TGI,LOX IMVI melanoma,> 100 µM
same,TGI,HT29 colon,> 100 µM
same,TGI,HCT-116 colon,> 100 µM
same,TGI,MALME-3M melanoma,> 100 µM
same,TGI,COLO 205 colon,> 100 µM
same,TGI,PC-3 prostate,> 100 µM
same,TGI,NCI-H226 lung,> 100 µM
same,TGI,RPMI-8226 leukemia,> 100 µM
COc1cc(Oc2cnc3cc(N)cc(N)c3n2)cc(OC)c1OC,GI50,ACHN renal,24.3 µM
same,TGI,ACHN renal,63.4 µM
same,GI50,UO-31 renal,35 µM
same,TGI,UO-31 renal,> 100 µM
same,GI50,LOX IMVI melanoma,33.4 µM
same,TGI,LOX IMVI melanoma,> 100 µM
same,GI50,HT29 colon,18.5 µM
same,TGI,HT29 colon,40.4 µM
same,GI50,HCT-116 colon,19.6 µM
same,TGI,HCT-116 colon,42.8 µM
same,GI50,MALME-3M melanoma,59.9 µM
same,TGI,MALME-3M melanoma,> 100 µM
same,GI50,COLO 205 colon,27.8 µM
same,TGI,COLO 205 colon,71.6 µM
same,GI50,PC-3 prostate,32.4 µM
same,TGI,PC-3 prostate,> 100 µM
same,GI50,NCI-H226 lung,45.6 µM
same,TGI,NCI-H226 lung,> 100 µM
same,GI50,RPMI-8226 leukemia,21.9 µM
same,TGI,RPMI-8226 leukemia,45 µM
CC(=N\O)/C(C)=N/O.CC(=N\O)/C(C)=N/O.[Pd],GI50,ACHN renal,> 10 µM
same,TGI,ACHN renal,> 10 µM
same,GI50,LOX IMVI melanoma,1.58 µM
same,TGI,LOX IMVI melanoma,3.16 µM
same,GI50,HT29 colon,2.77 µM
same,TGI,HT29 colon,7.99 µM
same,GI50,HCT-116 colon,2.38 µM
same,TGI,HCT-116 colon,4.79 µM
same,GI50,MALME-3M melanoma,1.9 µM
same,TGI,MALME-3M melanoma,4.53 µM
same,GI50,COLO 205 colon,3.84 µM
same,TGI,COLO 205 colon,> 10 µM
same,GI50,PC-3 prostate,4.73 µM
same,TGI,PC-3 prostate,> 10 µM
same,GI50,NCI-H226 lung,> 10 µM
same,TGI,NCI-H226 lung,> 10 µM
same,GI50,RPMI-8226 leukemia,7.39 µM
same,TGI,RPMI-8226 leukemia,> 10 µM
CC(=O)c1c[nH]c2ccc(-c3ccnc(Nc4ccc(NC(=O)c5cccc(F)c5)c(CN5CCOCC5)c4)n3)cc12,GI50,ACHN renal,0.0845 µM
same,TGI,ACHN renal,3.1 µM
same,GI50,UO-31 renal,0.0961 µM
same,TGI,UO-31 renal,1.75 µM
same,GI50,LOX IMVI melanoma,0.0604 µM
same,TGI,LOX IMVI melanoma,0.45 µM
same,GI50,HT29 colon,0.146 µM
same,GI50,HCT-116 colon,0.0608 µM
same,TGI,HCT-116 colon,14.7 µM
same,GI50,MALME-3M melanoma,0.254 µM
same,TGI,MALME-3M melanoma,0.749 µM
same,GI50,COLO 205 colon,0.0637 µM
same,TGI,COLO 205 colon,0.317 µM
same,GI50,PC-3 prostate,0.224 µM
same,TGI,PC-3 prostate,2.96 µM
same,GI50,NCI-H226 lung,0.148 µM
same,TGI,NCI-H226 lung,1.76 µM
same,GI50,RPMI-8226 leukemia,0.325 µM
same,TGI,RPMI-8226 leukemia,1.35 µM
Nc1ncnc2c1ncn2C1OC(CO)C(O)C1O (stereo unspecified),GI50,ACHN renal,30.4 µM
same,TGI,ACHN renal,> 100 µM and 96.8 µM
same,TGI,UO-31 renal,> 450 µM
same,GI50,LOX IMVI melanoma,5.73 µM
same,TGI,LOX IMVI melanoma,> 450 µM
same,TGI,HT29 colon,> 450 µM
same,GI50,HCT-116 colon,7.58 µM
same,TGI,HCT-116 colon,> 450 µM
same,GI50,MALME-3M melanoma,51.3 µM
same,TGI,MALME-3M melanoma,> 422 µM
same,GI50,COLO 205 colon,> 100 µM and > 450 µM and 60.3 µM
same,TGI,COLO 205 colon,> 450 µM
same,GI50,PC-3 prostate,1.44 µM
same,TGI,PC-3 prostate,> 100 µM and 12.8 µM
same,GI50,NCI-H226 lung,> 100 µM and 213 µM and 25.5 µM
same,TGI,NCI-H226 lung,> 373 µM
same,TGI,RPMI-8226 leukemia,> 100 µM and > 450 µM and 60.8 µM
Cc1cc(CC(O)(C(F)(F)F)C(F)(F)F)cc(CC(O)(C(F)(F)F)C(F)(F)F)n1,TGI,ACHN renal,8.29 µM
same,TGI,UO-31 renal,4.02 µM
same,TGI,LOX IMVI melanoma,5.79 µM
same,TGI,HT29 colon,7.79 µM
same,TGI,HCT-116 colon,6.09 µM
same,TGI,MALME-3M melanoma,4.3 µM
same,TGI,COLO 205 colon,3.33 µM
same,TGI,PC-3 prostate,10.3 µM
same,TGI,NCI-H226 lung,8.13 µM
same,TGI,RPMI-8226 leukemia,5.96 µM
NS(=O)(=O)OC[C@H]1O[C@@H](n2cnc3c(N[C@H]4CCc5ccccc54)ncnc32)[C@H](O)[C@@H]1O,GI50,ACHN renal,0.167 µM
same,TGI,ACHN renal,0.57 µM
same,GI50,UO-31 renal,1.41 µM
same,TGI,UO-31 renal,2.88 µM
same,GI50,LOX IMVI melanoma,0.0209 µM
same,TGI,LOX IMVI melanoma,0.0572 µM
same,GI50,HT29 colon,0.327 µM
same,TGI,HT29 colon,5.55 µM
same,GI50,HCT-116 colon,0.0213 µM
same,TGI,HCT-116 colon,0.114 µM
same,GI50,MALME-3M melanoma,0.195 µM
same,TGI,MALME-3M melanoma,0.447 µM
same,GI50,COLO 205 colon,0.043 µM
same,TGI,COLO 205 colon,0.22 µM
same,GI50,PC-3 prostate,0.337 µM
same,TGI,PC-3 prostate,2.14 µM
same,GI50,NCI-H226 lung,0.0285 µM
same,TGI,NCI-H226 lung,0.0863 µM
same,GI50,RPMI-8226 leukemia,3.36 µM
same,TGI,RPMI-8226 leukemia,28.1 µM
CC(=O)O/N=C1\C=Cc2c(no[n+]2[O-])C1=O,TGI,ACHN renal,30.9 µM
same,TGI,UO-31 renal,28.3 µM
same,TGI,LOX IMVI melanoma,36.2 µM
same,TGI,HT29 colon,32.4 µM
same,TGI,HCT-116 colon,27.6 µM
same,TGI,MALME-3M melanoma,28.1 µM
same,TGI,COLO 205 colon,22 µM
same,TGI,PC-3 prostate,32.3 µM
same,TGI,NCI-H226 lung,> 100 µM
same,TGI,RPMI-8226 leukemia,62 µM
COC1=CC(=O)c2c(O)c3c(c(O)c2C1=O)CC(C)(O)OC3 (stereo unspecified),TGI,ACHN renal,> 34 µM
same,TGI,UO-31 renal,15.2 µM
same,TGI,LOX IMVI melanoma,12.9 µM
same,TGI,HT29 colon,11.6 µM
same,TGI,HCT-116 colon,10.6 µM
same,TGI,MALME-3M melanoma,2.1 µM
same,TGI,COLO 205 colon,4.76 µM
same,TGI,PC-3 prostate,14.9 µM
same,TGI,NCI-H226 lung,37.2 µM
same,TGI,RPMI-8226 leukemia,> 76.8 µM
COc1ccc(CNCCN2C(=O)c3ccc4c5c(ccc(c35)C2=O)C(=O)N(CCNCc2ccc(OC)cc2)C4=O)cc1,GI50,ACHN renal,0.312 µM
same,TGI,ACHN renal,1.56 µM
same,GI50,UO-31 renal,0.501 µM
same,TGI,UO-31 renal,1.98 µM
same,GI50,LOX IMVI melanoma,0.195 µM
same,TGI,LOX IMVI melanoma,0.583 µM
same,GI50,HT29 colon,0.122 µM
same,TGI,HT29 colon,0.403 µM
same,GI50,HCT-116 colon,0.147 µM
same,TGI,HCT-116 colon,0.688 µM
same,GI50,MALME-3M melanoma,0.123 µM
same,TGI,MALME-3M melanoma,0.269 µM
same,GI50,COLO 205 colon,0.137 µM
same,TGI,COLO 205 colon,0.281 µM
same,GI50,PC-3 prostate,0.387 µM
same,TGI,PC-3 prostate,1.96 µM
same,GI50,NCI-H226 lung,0.637 µM
same,TGI,NCI-H226 lung,2.28 µM
same,GI50,RPMI-8226 leukemia,0.487 µM
same,TGI,RPMI-8226 leukemia,3.14 µM
C=CC[n+]1c(/C=C2\Sc3ccccc3N2C)sc(-c2ccccc2)c1-c1ccccc1,GI50,ACHN renal,1.7 µM
same,TGI,ACHN renal,10.2 µM
same,GI50,UO-31 renal,1.61 µM
same,TGI,UO-31 renal,4.4 µM
same,GI50,LOX IMVI melanoma,0.34 µM
same,TGI,LOX IMVI melanoma,1.54 µM
same,GI50,HT29 colon,0.306 µM
same,TGI,HT29 colon,6.1 µM
same,GI50,HCT-116 colon,0.36 µM
same,TGI,HCT-116 colon,11.5 µM
same,GI50,MALME-3M melanoma,0.253 µM
same,TGI,MALME-3M melanoma,0.672 µM
same,GI50,COLO 205 colon,0.249 µM
same,TGI,COLO 205 colon,0.658 µM
same,GI50,PC-3 prostate,0.264 µM
same,TGI,PC-3 prostate,1.34 µM
same,GI50,NCI-H226 lung,0.258 µM
same,TGI,NCI-H226 lung,0.977 µM
same,GI50,RPMI-8226 leukemia,0.25 µM
same,TGI,RPMI-8226 leukemia,0.987 µM
CCCCC#Cc1c(I)n(C2OC(CO[Si](C)(C)C(C)(C)C)C3OC(C)(C)OC32)c(=O)[nH]c1=O (stereo unspecified),GI50,ACHN renal,2.29 µM
same,TGI,ACHN renal,7.52 µM
same,GI50,UO-31 renal,1.53 µM
same,TGI,UO-31 renal,11.2 µM
same,GI50,LOX IMVI melanoma,3.39 µM
same,TGI,LOX IMVI melanoma,> 100 µM
same,GI50,HT29 colon,8.21 µM
same,TGI,HT29 colon,22.1 µM
same,GI50,HCT-116 colon,5.52 µM
same,TGI,HCT-116 colon,17.9 µM
same,GI50,MALME-3M melanoma,5.45 µM
same,TGI,MALME-3M melanoma,24.8 µM
same,GI50,PC-3 prostate,2.8 µM
same,TGI,PC-3 prostate,10.4 µM
same,GI50,NCI-H226 lung,12.7 µM
same,TGI,NCI-H226 lung,25.6 µM
same,GI50,RPMI-8226 leukemia,2.17 µM
same,TGI,RPMI-8226 leukemia,5.28 µM
COc1cc(C2CC(c3ccc(C)cc3)=NN2C(C)=O)ccc1Oc1ccnc2cc(Cl)ccc12 (stereo unspecified),GI50,ACHN renal,2.76 µM
same,TGI,ACHN renal,> 100 µM
same,GI50,HT29 colon,> 100 µM
same,TGI,HT29 colon,> 100 µM
same,GI50,HCT-116 colon,0.681 µM
same,TGI,HCT-116 colon,> 100 µM
same,GI50,MALME-3M melanoma,> 100 µM
same,TGI,MALME-3M melanoma,> 100 µM
same,GI50,COLO 205 colon,> 100 µM
same,TGI,COLO 205 colon,> 100 µM
same,GI50,PC-3 prostate,> 100 µM
same,TGI,PC-3 prostate,> 100 µM
same,GI50,NCI-H226 lung,5.38 µM
same,TGI,NCI-H226 lung,> 100 µM
same,GI50,RPMI-8226 leukemia,> 100 µM
same,TGI,RPMI-8226 leukemia,> 100 µM
COc1cc2c(cc1OC)[C@@H]1[C@H](C2=O)c2ccc([N+](=O)[O-])cc2C(=O)N1CCCBr,GI50,LOX IMVI melanoma,0.2 µM
same,TGI,LOX IMVI melanoma,0.81 µM
same,GI50,HT29 colon,0.35 µM
same,GI50,HCT-116 colon,< 0.01 µM
same,TGI,HCT-116 colon,0.0133 µM
same,GI50,MALME-3M melanoma,0.367 µM
same,TGI,MALME-3M melanoma,3.09 µM
same,GI50,PC-3 prostate,1.19 µM
same,TGI,PC-3 prostate,> 70.4 µM
same,GI50,NCI-H226 lung,0.281 µM
same,TGI,NCI-H226 lung,1.24 µM
same,GI50,RPMI-8226 leukemia,0.145 µM
same,TGI,RPMI-8226 leukemia,1.87 µM
